US5441732A, “Reversible gelation emulsion compositions and methods of use” (Allergan, Inc., priority 1992, dated 1995)
Read-outs that look alike come from different tables or passages of the source.

Assays:
[1] = Drug solubility in oil at room temperature; assay type: physicochemical; settings: for Drug solubility in Miglyol: Miglyol 812
[2] = cited from earlier work

With CC(=O)[C@@]1(O)CC[C@H]2[C@@H]3C[C@H](C)C4=CC(=O)C=C[C@]4(C)[C@@]3(F)[C@@H](O)C[C@@]21C [Fluorometholone] the “Drug solubility in Diethyl Phthalate” value [1] was 0.075%, the “solubility in diethyl phthalate” value [1] was “relatively low” and the “Drug solubility in Miglyol” value [1] was < 0.001%.

For CC(C(=O)O)c1ccc(-c2ccccc2)c(F)c1 (stereo not shown) [Flurbiprofen (free acid)], the “Drug solubility in Diethyl Phthalate” value [1] is given as 12-20%, the “Drug solubility in Miglyol” value [1] is given as 2-4% and the “water solubility” value ([2]; pH 4.0) is given as “very small”. The “water solubility” value ([2]; pH 7.4) was “higher”.
